Results on four compounds are retold here after PubChem BioAssay AID1259407 (Chemical Carcinogenesis Research Information System (CCRIS), 2018).

The test system of the data set is CCRIS mutagenicity, Ames/micronucleus/aberration tests. Put plainly: CCRIS mutagenicity studies.
The mark [1] stands for this setting: Test System: AMES SALMONELLA TYPHIMURIUM, Strain/Indicator: TA98, Metabolic Activation: NONE, Method: PREINCUBATION
The mark [2] stands for this setting: Test System: AMES SALMONELLA TYPHIMURIUM, Strain/Indicator: TA100, Metabolic Activation: NONE, Method: PREINCUBATION
Setting [3] is: Test System: AMES SALMONELLA TYPHIMURIUM, Strain/Indicator: TA98, Metabolic Activation: NONE, Method: STANDARD PLATE.
[4] abbreviates: Test System: AMES SALMONELLA TYPHIMURIUM, Strain/Indicator: TA100, Metabolic Activation: NONE, Method: STANDARD PLATE.

Structures are written as SMILES. The source made the active and inactive calls. No rule for the calls is given here.

As to `CCCC(=O)c1cc(O)c(O)cc1O`, the mutagenic call reads like this: (Test System: AMES SALMONELLA TYPHIMURIUM, Strain/Indicator: TA98, Metabolic Activation: HAMSTER, LIVER, S-9, AROCLOR 1254 (10%), Method: PREINCUBATION) “active; positive”; under setting [1], “inactive; negative”; (Test System: AMES SALMONELLA TYPHIMURIUM, Strain/Indicator: TA98, Metabolic Activation: RAT, LIVER, S-9, AROCLOR 1254 (10%), Method: PREINCUBATION) “inactive; negative”; (Test System: AMES SALMONELLA TYPHIMURIUM, Strain/Indicator: TA100, Metabolic Activation: HAMSTER, LIVER, S-9, AROCLOR 1254 (10%), Method: PREINCUBATION) “inactive; negative”; under setting [2], “inactive; negative”; (Test System: AMES SALMONELLA TYPHIMURIUM, Strain/Indicator: TA100, Metabolic Activation: RAT, LIVER, S-9, AROCLOR 1254 (10%), Method: PREINCUBATION) “active; positive”. Moreover, the mutagenic call by setting is: (Test System: AMES SALMONELLA TYPHIMURIUM, Strain/Indicator: TA1535, Metabolic Activation: HAMSTER, LIVER, S-9, AROCLOR 1254 (10%), Method: PREINCUBATION) “inactive; negative”; (Test System: AMES SALMONELLA TYPHIMURIUM, Strain/Indicator: TA1535, Metabolic Activation: NONE, Method: PREINCUBATION) “inactive; negative”; (Test System: AMES SALMONELLA TYPHIMURIUM, Strain/Indicator: TA1535, Metabolic Activation: RAT, LIVER, S-9, AROCLOR 1254 (10%), Method: PREINCUBATION) “inactive; negative”; (Test System: AMES SALMONELLA TYPHIMURIUM, Strain/Indicator: TA1537, Metabolic Activation: HAMSTER, LIVER, S-9, AROCLOR 1254 (10%), Method: PREINCUBATION) “inactive; negative”; (Test System: AMES SALMONELLA TYPHIMURIUM, Strain/Indicator: TA1537, Metabolic Activation: NONE, Method: PREINCUBATION) “inactive; negative”; (Test System: AMES SALMONELLA TYPHIMURIUM, Strain/Indicator: TA1537, Metabolic Activation: RAT, LIVER, S-9, AROCLOR 1254 (10%), Method: PREINCUBATION) “active; positive”.

Take `O=[N+]([O-])c1cc2[nH]c3ccc4c(O)cccc4c3c2c2ccccc12`: the mutagenic call under setting [3] is “active; positive”; the mutagenic call (Test System: AMES SALMONELLA TYPHIMURIUM, Strain/Indicator: TA98, Metabolic Activation: RAT, LIVER, S-9, 3-METHYLCHOLANTHRENE, Method: STANDARD PLATE) is “active; positive”; the mutagenic call under setting [4] is “active; positive”; the mutagenic call (Test System: AMES SALMONELLA TYPHIMURIUM, Strain/Indicator: TA100, Metabolic Activation: RAT, LIVER, S-9, 3-METHYLCHOLANTHRENE, Method: STANDARD PLATE) was “active; positive”.

As to `Nc1ccn([C@@H]2C=C(CO)[C@@H](O)[C@H]2O)c(=O)n1`, the mutagenic call by setting is: (Test System: AMES SALMONELLA TYPHIMURIUM, Strain/Indicator: TA98, Metabolic Activation: HAMSTER, LIVER, S-9, AROCLOR 1254 (10%), Method: STANDARD PLATE) “inactive; negative”; under setting [3], “inactive; negative”; (Test System: AMES SALMONELLA TYPHIMURIUM, Strain/Indicator: TA98, Metabolic Activation: RAT, LIVER, S-9, AROCLOR 1254 (10%), Method: STANDARD PLATE) “inactive; negative”; (Test System: AMES SALMONELLA TYPHIMURIUM, Strain/Indicator: TA100, Metabolic Activation: HAMSTER, LIVER, S-9, AROCLOR 1254 (10%), Method: STANDARD PLATE) “inactive; negative”; under setting [4], “inactive; negative”; (Test System: AMES SALMONELLA TYPHIMURIUM, Strain/Indicator: TA100, Metabolic Activation: RAT, LIVER, S-9, AROCLOR 1254 (10%), Method: STANDARD PLATE) “inactive; negative”. The mutagenic call (Test System: AMES SALMONELLA TYPHIMURIUM, Strain/Indicator: TA1535, Metabolic Activation: HAMSTER, LIVER, S-9, AROCLOR 1254 (10%), Method: STANDARD PLATE) was “inactive; negative”; the mutagenic call (Test System: AMES SALMONELLA TYPHIMURIUM, Strain/Indicator: TA1535, Metabolic Activation: NONE, Method: STANDARD PLATE) is “inactive; negative”; the mutagenic call (Test System: AMES SALMONELLA TYPHIMURIUM, Strain/Indicator: TA1535, Metabolic Activation: RAT, LIVER, S-9, AROCLOR 1254 (10%), Method: STANDARD PLATE) was “inactive; negative”; the mutagenic call (Test System: AMES SALMONELLA TYPHIMURIUM, Strain/Indicator: TA1537, Metabolic Activation: HAMSTER, LIVER, S-9, AROCLOR 1254 (10%), Method: STANDARD PLATE) is “inactive; negative”; the mutagenic call (Test System: AMES SALMONELLA TYPHIMURIUM, Strain/Indicator: TA1537, Metabolic Activation: NONE, Method: STANDARD PLATE) was “inactive; negative”; the mutagenic call (Test System: AMES SALMONELLA TYPHIMURIUM, Strain/Indicator: TA1537, Metabolic Activation: RAT, LIVER, S-9, AROCLOR 1254 (10%), Method: STANDARD PLATE) is “inactive; negative”. Also, the mutagenic call was “inactive; negative” (Test System: AMES SALMONELLA TYPHIMURIUM, Strain/Indicator: TA1538, Metabolic Activation: HAMSTER, LIVER, S-9, AROCLOR 1254 (10%), Method: STANDARD PLATE); “inactive; negative” (Test System: AMES SALMONELLA TYPHIMURIUM, Strain/Indicator: TA1538, Metabolic Activation: NONE, Method: STANDARD PLATE); “inactive; negative” (Test System: AMES SALMONELLA TYPHIMURIUM, Strain/Indicator: TA1538, Metabolic Activation: RAT, LIVER, S-9, AROCLOR 1254 (10%), Method: STANDARD PLATE); “active; positive. reevaluation of results: positive” (Test System: MOUSE LYMPHOMA, Strain/Indicator: L5178Y (TK+/TK-), Metabolic Activation: RAT, LIVER, S-9, AROCLOR 1254, Method: SUSPENSION/PLATE); “active; positive” (Test System: Mouse lymphoma, Strain/Indicator: L5178Y (tk+/tk-), Metabolic Activation: None, Method: Suspension/plate).

As to `Cc1cccc([N+](=O)[O-])c1C`, the mutagenic call was “inactive; negative” under setting [1]; “inactive; negative” (Test System: AMES SALMONELLA TYPHIMURIUM, Strain/Indicator: TA98, Metabolic Activation: RAT, LIVER, S-9, KANECHLOR 500, Method: PREINCUBATION); “inactive; negative” under setting [2]; “inactive; negative” (Test System: AMES SALMONELLA TYPHIMURIUM, Strain/Indicator: TA100, Metabolic Activation: RAT, LIVER, S-9, KANECHLOR 500, Method: PREINCUBATION).
